{
  "source": "patent US8420614B2",
  "about": "“Compositions and methods for inhibiting or reversing fibrotic disorders” (Albany Medical College, priority 2007, dated 2013)",
  "format_in_all_cases": "cell-based, human",
  "key": {"NADF [1]": {"tested_on": "NADF", "test": "Floating collagen lattice contraction, NADF", "conditions": "TGF-β1 10 ng/ml; floating collagen lattice three days", "experimental": "(§1) Before preparing the gels, 5 ml of BSA (Sigma) solution (0.1% BSA in PBS, filter sterilized) was pipetted into each well of a six-well plate, incubated at 37° C. for 1 hour. 1.4 ml of bovine dermal collagen Vitrogen (Cohesion, Palo Alto, Calif.) was mixed with 0.4 ml of 5×DMEM in a 15 ml centrifuge tube cooled on ice. The pH was adjusted to a range of 7.2-7.5, using a sterile solution of 1N NaOH. The control and modified cells were trypsinized from a confluent tissue culture plate and 0.2 ml of the cell suspension (containing 5×10^5 cells) was added to the collagen solution, gently mixed and poured into a well of the six-well plate. Collagen lattices were allowed to gel for 60 minutes in a 5% CO2 atmosphere at 37° C. After 60 minutes, the collagen lattices were detached from the surface of the well by rimming the lattice with a sterile spatula and gently swirling the six-well plate. 2 ml of serum-free medium was added to each well. Plates were incubated in a 5% CO2 atmosphere at 37° C. To measure contraction, the tissue culture dishes were periodically placed on top of a transparent metric ruler on an opaque background, and the diameters of the lattices were recorded."}, "[2]": {"tested_on": "supermature focal adhesions in NADF", "test": "Focal adhesion measurements, NADF", "conditions": "TGF-β1 10 ng/ml for 5 days", "experimental": "Cells were stained as previously described (Dabiri et al., 2006), with slight modification. Control or modified cells were cultured at 30% confluency in complete medium for 18 hours, then washed with Dulbecco's phosphate-buffered saline and serum-free medium was added, followed by 10 ng/ml of TGF-β1 or 20 ng/ml of anti-TGF-β1 (R&D Systems, Minneapolis, Minn.) where specified. Cells were allowed to incubate for 5 days. On the fifth day, cells were washed fixed, permeabilized, and blocked for 1 hour. Samples were then incubated sequentially with mAb against vinculin (1:400) (Sigma Chemical Co., St Louis, Mo.), and then with a mixture of goat anti-mouse Alexa Fluor 488 (1:1000) and TRITC-conjugated phalloidin (1:100). […] Images were captured with attached Cooke Sensicam digital camera and deconvolved using Slidebook 3.0.10.3 software (FFTW licensed from Massachusetts Institute of Technology, Cambridge, Mass.).\nFocal adhesion measurements were performed as described previously (Dabiri et al., 2006). In brief, cells (n=20) were chosen that were not in contact with any other cell and were well spread. Images were observed using Olympus BX60 microscope equipped with an immersion oil objective (×60/1.25, phase) and captured as described above. Vinculin staining was measured for area (μm^2) of focal adhesion using Image Pro-Plus version 4.5.1.26 (Media Cybermatic, Silver Spring, Md.). […]"}, "[3]": {"tested_on": "collagen type I and FN in NADF", "test": "Western blot of ECM proteins, NADF", "conditions": "TGF-β1 10 ng/ml, 5 days", "experimental": "(§2) NADF and HTSF lysates were analyzed for protein expression by western blotting with the following primary antibodies at a concentration of 1:1000: cyclin D1, (BD-Biosciences; DCS-6, San Jose, Calif.), cyclin A, (Santa Cruz Biotech.; H 432, Santa Cruz, Calif.), p21^cip1 (BD-Biosciences; sx-118, San Jose, Calif.), p15^ink4b (Cell Signaling, Danvers, Mass.), Hic-5 (BD Transduction, Franklin Lakes, N.J.), RhoGDI (Santa Cruz Biotech, Santa Cruz, Calif.), H2A (Cell Signaling, Danvers, Mass.) and ERK½ (Santa Cruz Biotech, Santa Cruz, Calif.), Vinculin (Sigma Aldrich), SMCA (Sigma Aldrich), FN (Neomarkers), Collagen type I (Sigma Aldrich), Paxillin (Sigma Aldrich). Western blots were developed using SuperSignal chemiluminescent substrate (Pierce, Rockford, Ill.) and quantitated with a Fluor-S MultiImager and Quantity-One software (Bio-Rad, Hercules, Calif.). Membranes were stripped using Restore Stripping (Pierce, Rockford, Ill.) and reprobed (no more than once) with other antibodies."}, "NADF [4]": {"tested_on": "NADF", "test": "CyQUANT cell growth, NADF", "conditions": "serum-containing media; anti-TGF-β 20 μg/ml or TGF-β1 10 ng/ml", "experimental": "(§3) All cells used in these studies were cultured (37° C., 5% CO2.) in serum-containing media which consisted of Dulbecco's modification of Eagle's Minimum Essential Medium, 10% fetal bovine serum and 1% penicillin-streptomycin (all of which were obtained from Gibco Invitrogen Corporation, Carlsbad, Calif.). NADF were purchased from Clonetics-Cambrex BioScience (Walkersville, Md.). HTSF were isolated from biopsies taken from hypertrophic scars resected therapeutically from pediatric patients at Shriner's Burn Hospital and Massachusetts General Hospital, (Boston, Mass.). Tissue was processed according to the protocol of Ronnov-Jessen and Peterson (1993) and as described in (Dabiri et al., 2006). All tissues were acquired anonymously under protocols approved by the relevant medical and ethical committees of the Shriner's Burn Center in accordance with the Declaration of Helsinki Principles and patients gave their written, informed consent.\n(§4) Cell growth was measured using CyQUANT® Cell Proliferation Assay Kit (C-7026, Invitrogen, Carlsbad, Calif.). […] Plates were read on Spectra Max Gemini-EM (Molecular Devices, Sunnyvale, Calif.) with an excitation and emission spectrum 480 nm and 520 nm, respectively."}, "HTSF [5]": {"tested_on": "HTSF", "test": "CyQUANT cell growth, HTSF", "conditions": "serum-containing media; anti-TGF-β 20 μg/ml or TGF-β1 10 ng/ml", "experimental": "as §3, §4"}, "SMCA in HTSF": {"tested_on": "SMCA in HTSF", "test": "SMCA expression (western blot, immunostaining), HTSF", "conditions": "TGF-β1 10 ng/ml, 5 days", "experimental": "as §2\n(§5) Cells were stained as previously described (Dabiri et al., 2006), with slight modification. Control or modified cells were cultured at 30% confluency in complete medium for 18 hours, then washed with Dulbecco's phosphate-buffered saline and serum-free medium was added, followed by 10 ng/ml of TGF-β1 or 20 ng/ml of anti-TGF-β1 (R&D Systems, Minneapolis, Minn.) where specified. […]"}, "Hic-5": {"tested_on": "Hic-5", "test": "Western blot of Hic-5 expression, NADF", "conditions": "TGF-β1 10 ng/ml", "experimental": "as §2\nEither NADF (5×10^3 cells) or HTSF (5×10^3 cells) were cultured in DMEM plus serum for 24 hrs with either TGF-β1 (10 ng/ml) or anti-TGF-β1 (20 μg/ml) where indicated. […] Protein expression was analyzed by western blot, as described above. […]"}, "SMCA in NADF": {"tested_on": "SMCA in NADF", "test": "SMCA expression (western blot, immunostaining), NADF", "conditions": "TGF-β1 10 ng/ml", "experimental": "as §2, §5"}, "HTSF [6]": {"tested_on": "HTSF", "test": "Floating collagen lattice contraction, HTSF", "conditions": "TGF-β1 10 ng/ml added to Hic-5 siRNA treated HTSF", "experimental": "as §1"}, "NADF [7]": {"tested_on": "NADF", "test": "BrdU incorporation, NADF", "conditions": "24 h BrdU pulse; TGF-β1 10 ng/ml", "experimental": "HTSF (5×10^3 cells) or NADF (5×10^3 cells) were plated in serum free media (Dulbecco's […] 1:1, Hams F12 1:1, transferrin 5 μg/ml, insulin 5×10^−7M, ascorbate 0.2 mM, glutamine 1:100, penicillin-streptomycin 1:100) for 18 hrs in Labtek™ chambers (Nalge Nunc International, Naperville, Ill.) at 37° C. Cells were washed three times with Dulbecco's phosphate buffered saline (DPBS) (Gibco Invitrogen International, Carlsbad, Calif.) and to each well DMEM containing serum was added, 10 μg/ml of BrdU (Biodesign International, Saco, Me.), with or without the addition of 10 ng/ml of TGFβ1. In some wells anti-TGF-β (20 μg/ml) was also added as indicated. Cells were incubated (24 hrs), washed with DPBS, fixed with 3.7% formaldehyde (Sigma Chemical Co., St. Louis, Mo.) in DPBS (10 min), permeabilized with 0.5% Triton X-100 (5 min) (Sigma Chemical Co., St. Louis, Mo.), blocked (1 hr) with 2% bovine serum albumin (Sigma Chemical Co., St. Louis, Mo.) in PBS then DNAase (Promega, Madison, Wis.) treated for 30 min. […] Coverslips were mounted in Gelmount (Biomedia Corp., Biomedia Corp., Foster City, Calif.) and slides were analyzed on an Olympus BX60 microscope using 10× objective. […] The percent positive BrdU incorporation was determined by dividing the number of nuclei labeled with both BrdU (green) and Hoescht (blue) by the total number of nuclei (blue)×100."}, "[8]": {"tested_on": "cyclin A, cyclin D1, p21^cip1, p15^ink4b in NADF", "test": "Western blot of cell cycle proteins, NADF", "experimental": "as §2"}},
  "data": [
    {"substance": "TGF-β1: recombinant, active TGF-β1 added exogenously (R&D Systems)", "values": [
      {"measurement": "decrease in collagen diameter by NADF", "setting": "NADF [1]", "value": 3, "unit": "fold"},
      {"measurement": "increase in the percentage of focal adhesions greater than 6 μm^2 in NADF", "setting": "[2]", "value": "~10", "unit": "fold"},
      {"measurement": "expression of collagen and FN in NADF", "setting": "[3]", "value": "significantly increased the expression of these ECM proteins"},
      {"measurement": "NADF proliferation (increase in cell number by day 3)", "setting": "NADF [4]", "value": "statistically significant decrease in proliferation"},
      {"measurement": "HTSF proliferation (increase in cell number by day 3)", "setting": "HTSF [5]", "value": "did not significantly alter the growth"},
      {"measurement": "increase in the percentage of positive SMCA cells in HTSF in which Hic-5 was genetically ablated", "setting": "SMCA in HTSF", "value": 5, "unit": "fold"},
      {"measurement": "expression of Hic-5 in NADF", "setting": "Hic-5; 24 h", "value": "significantly increased the expression of Hic-5"},
      {"measurement": "expression of Hic-5 in the nucleus in NADF", "setting": "Hic-5; subcellular fractionation", "value": "significantly increased the expression of Hic-5 in the nucleus"},
      {"measurement": "increase in percent positive SMCA cells in NADF", "setting": "SMCA in NADF; 5 days", "value": 7, "unit": "fold"},
      {"measurement": "expression of SMCA and Hic-5 in NADF", "setting": "SMCA in NADF; serum free media five days", "value": "both SMCA and Hic-5 were upregulated"},
      {"measurement": "ability of Hic-5 knocked-down HTSF to contract collagen", "setting": "HTSF [6]", "value": "fully rescued the ability of HTSF to contract collagen"},
      {"measurement": "percent BrdU positive nuclei in NADF", "setting": "NADF [7]", "value": "statistically significant decrease in the percent positive nuclei"},
      {"measurement": "cyclin A and cyclin D1 levels in NADF", "setting": "[8]; 24 h, TGF-β1 10 ng/ml", "value": "decreased cyclin A and cyclin D1 levels"},
      {"measurement": "increase in p15^ink4b level in NADF compared to NADF without TGF-β1", "setting": "[8]; 24 h, TGF-β1 10 ng/ml", "value": 5.25, "unit": "fold"},
      {"measurement": "increase in p21^cip1 level in NADF compared to NADF without TGF-β1", "setting": "[8]; 24 h, TGF-β1 10 ng/ml", "value": 2.5, "unit": "fold"},
      {"measurement": "increase in expression of p15^ink4b in NADF", "setting": "[8]; siRNA experiment, TGF-β1 10 ng/ml for 24 hrs, unaffected by knockdown of Hic-5", "value": 4, "unit": "fold"}
    ]}
  ]
}
